Consider 2 molecules from ChEMBL document CHEMBL4665694, “Integrating the Impact of Lipophilicity on Potency and Pharmacokinetic Parameters Enables the Use of Diverse Chemical Space during Small Molecule Drug Optimization” (J Med Chem, 2020).

Some results are limits rather than exact numbers.

Holding throughout (format): ADME
A short description of data set [1]: Clearance in human.
The nature of data set [2]: Unbound clearance in human.
Data set [3] in a line: Volume of distribution at steady state in human. The conditions noted are these: read-out: Vdss.
Data set [4] is described as follows: Unbound volume of distribution at steady state in human.
Data set [5] can be described thus: AUC in human administered as single dose.
A short description of data set [6]: Unbound AUC in human administered as single dose.
Data set [7] in a line: Fraction unbound in human.
A short description of data set [8]: Half life in human.
A short description of data set [9]: AUC at steady state in human administered as single dose.
Data set [10] is described as follows: Unbound AUC at steady state in human administered as single dose.

Broadly, the clearance is a measure of how efficiently the substance is removed, as volume per time. A lower clearance goes with inefficient removal. Usually AUC stands for the area under the concentration-time curve, a measure of exposure. Lower therefore signals less exposure. As usually defined, the fraction unbound is free concentration divided by total concentration. What is called half-life is the time needed for the level to fall by half in the phase considered. On to `OC(Cn1cncn1)(Cn1cncn1)c1ccc(F)cc1F` [FLUCONAZOLE], for which, in data set [1], the clearance was 0.9 mL/min/kg. In data set [2], this molecule had a CL free of 1 mL/min/kg. In data set [3], the Vd worked out at 0.9 L/kg. The same molecule came in with a fVdss in [4] of 1 L/kg. This molecule returned an AUC in [5] of 100000 ng·h/mL. In data set [6], this molecule showed a fAUC of 90000 ng·h/mL. Moreover, the fraction unbound in data set [7] was 0.9. Moreover, the half-life in data set [8] is 32 h.

In data set [1], `CCC(C)n1ncn(-c2ccc(N3CCN(c4ccc(OCC5COC(Cn6cncn6)(c6ccc(Cl)cc6Cl)O5)cc4)CC3)cc2)c1=O` (stereo unspecified) [ITRACONAZOLE] came in with a clearance of 5.4 mL/min/kg. Moreover, the CL free in data set [2] was more than 2700 mL/min/kg. Further, the Vd in data set [3] turned out to be 11 L/kg. In addition, the fVdss in data set [4] was more than 5000 L/kg. Also, in [7], the fraction unbound is not above 0.002. The same molecule gave a half-life in data set [8] of 23 h. For the same molecule, the AUC in data set [9] turned out to be 23000 ng·h/mL. The molecule further registered a fAUC in [10] of 50 ng·h/mL.
